Three compounds from patent US20240327415A1, “Multicomponent Complexes, Including Salts, Crystalline Forms, and Hydrates and Solvates of ENT1 Inhibitors” (iTeos Belgium SA, priority 2023, published 2024) can be followed below.

The nature of data set [1]: TG/DSC and DSC thermal analysis. The class given is physicochemical. Particulars: for TGA/DSC thermal event, onset: value before the brackets; for TGA/DSC thermal event, peak: value in brackets. As to the method: In the examples below, to measure TGA/DSC, 2-10 mg of material was added into a pre-tared open aluminum pan and loaded into a TA Instruments Discovery SDT 650 Auto—Simultaneous DSC and held at room temperature. The sample was then heated at a rate of 10° C./min from 30° C. to 400° C. during which time the change in sample weight was recorded along with the heat flow response (DSC). Nitrogen was used as the sample purge gas, at a flow rate of 200 cm^3/min.
(§1) METHOD A: In Example 3, 1-5 mg of material was weighed into an aluminum DSC pan and sealed non-hermetically with a pierced aluminum lid. The sample pan was then loaded into a TA DSC2500 and held at 20° C. Once a stable heat-flow response was obtained, the sample and reference were heated to an upper temperature of 200° C. at a scan rate of 10° C./min and the resulting heat flow response monitored. The sample was held at the upper temperature for 3 minutes, before it was cooled at 10° C./min to 20° C., reheated to the upper temperature at 10° C./min, and then cooled again to 20° C. at the same rate. Nitrogen was used as the purge gas, at a flow rate of 50 cm^3/min.
as §1, with “B:” for “A:”, “Examples 2A, 14, and 17,” for “Example 3,”, “−80° C. and then” for “20° C.,”, “C./min.” for “C./min, and then cooled again to 20° C. at the same rate.”
METHOD C: In Example 5, 1-5 mg of a sample were weighed into an aluminum DSC pan and sealed non-hermetically with an aluminum lid. The sample pan was then loaded into a TA Instruments Discovery DSC 2500 differential scanning calorimeter equipped with a RC90 cooler. The sample and reference were heated to 190° C. at a scan rate of 10° C./min and the resulting heat flow response monitored. The sample was re-cooled to −80° C. and then reheated again to 190° C. all at 10° C./min. Nitrogen was used as the purge gas, at a flow rate of 50 cm^3/min.
2-10 mg of material was added into a pre-tared open aluminum pan and loaded into a TA Instruments Discovery SDT 650 Auto-Simultaneous DSC and held at room temperature. The sample was then heated at a rate of 10° C./min from 30° C. to 400° C. during which time the change in sample weight was recorded along with the heat flow response (DSC). Nitrogen was used as the sample purge gas, at a flow rate of 200 cm^3/min.
as §1, with “1-5” for “METHOD A: In Example 3, 1-5”, “min,” for “minutes,”
On the technique in general: In DSC, transitions show as peaks or steps in heat flow.

Data set [2] in a line: seven-day solid stability studies (ambient; 40° C./75% RH; 80° C.), XRPD and HPLC. The class given is physicochemical. On the procedure:
In the experiment, one set of vials was exposed to ambient light, temperature and humidity conditions. Another was exposed openly to 40° C. and 75% RH conditions and a third was sealed and exposed to 80° C. conditions. After 7 days, XRPD and HPLC measurements were collected.
Example 12-Stability Studies of Amorphous Compound 1 (free base) and Crystalline Form 1 Compound 1 (free base): Seven-day stability studies were carried out comparing amorphous Compound 1 (free base) and crystalline Form 1 Compound 1 (free base) at 40° C./75% RH, under ambient conditions and at 80° C. After storage at 40° C./75% RH and 80° C., the amorphous material formed glassy solids which were pale yellow (40° C./75% RH) or orange (80° C.). It is likely that the material melted and re-solidified at 80° C. and deliquesced at 40° C./75% RH. […] (decrease in purity of ca. 11% area).
Example 15-Stabilities Studies-Crystalline Form 3 Compound 1 di(hydrogen sulfate) and Crystalline Form 4 Compound 1 mono(hydrogen sulfate): Seven-day stability studies were carried out on the prepared crystalline Form 3 Compound 1 di(hydrogen sulfate) and crystalline Form 4 Compound 1 mono(hydrogen sulfate) using the following conditions: (1) Ambient light, temperature and humidity conditions (open vial); (2) 40° C./75% RH (open vial); and (3) 80° C. (closed vial). After 7 days of storage under the specified conditions, XRPD and HPLC analyses were carried out on the residual solid materials, and the results are summarized in Table 51.
Example 18-Seven Day Stability Study on Crystalline Form 2 Compound 1 di(hydrogen sulfate) trihydrate: A 7-day stability study was conducted on crystalline Form 2 Compound 1 di(hydrogen sulfate) trihydrate using the following conditions: (1) ambient light, temperature, and humidity conditions (open vial); (2) 40° C., 75% RH (open vial); and (3) 80° C. (closed vial). After 7 days of storage under the specified, XRPD and HPLC analyses were carried out on the residual solid materials.

The mark [3] stands for this setting: 7 days, 40° C./75% RH (open vial).
Setting [4] is: listed as Crystalline Form 4 Compound 1 mono(hydrogen sulfate).

Where two headings read alike, the source gives them in different places.

With `CCCN1CCNCCCNC(=O)c2cc(OC)c(OC)c(c2)OCCC[C@@H](OC(=O)c2cc(OC)c(OC)c(OC)c2)CC1`, in data set [1], the “DSC (onset/peak): onset” value amounted to 144 °C; the “DSC (onset/peak): peak” value came to 158 °C; the TGA/DSC mass loss turned out to be 7.3% mass loss; the “TGA/DSC thermal event, onset” value came to 130 °C. The “TGA/DSC thermal event, peak” value in data set [1] stood at 149 °C. Besides, the “7-day Stability studies: Purity compared to input” value in data set [2] is “Purity similar”. In data set [2] (setting [3]), this compound displayed an HPLC of 99.86 % area and an XRPD of 2. In data set [2] (7 days, 80° C. (closed vial)), the HPLC is 99.85 % area and the XRPD amounted to 2. Further, in data set [2] (7 days, Ambient (open vial)), the HPLC worked out at 99.86 % area and the XRPD was found to be 2. In data set [2] (Input sample), the HPLC came out at 99.92 % area and the XRPD came out at 2. The “7-day Stability studies: solid form” value in data set [2] (all conditions) was “No change”.
As for `COc1cc(C(=O)O[C@@H]2CCCOc3cc(cc(OC)c3OC)C(=O)NCCCN3CCCN(CC2)CC3)cc(OC)c1OC.O=S(=O)(O)O`, in data set [1], the “DSC (onset/peak): onset” value came out at 113 °C and the “DSC (onset/peak): peak” value turned out to be 119 °C. In data set [1] (setting [4]), the TGA/DSC mass loss came out at 15.5% mass loss; the “TGA/DSC thermal event, onset” value came out at 148 °C; the “TGA/DSC thermal event, peak” value turned out to be 160 °C. In addition, in data set [2], the “7-day Stability studies: Purity compared to input” value is reported as “Purity similar”. Also, the “solid form by XRPD after storage” value in data set [2] (7 days, 40° C./75% RH) is on record as “retained”. Also, the “solid form by XRPD after storage” value in data set [2] (7 days, 80° C.) is “predominantly amorphous”. The “solid form by XRPD after storage” value in data set [2] (7 days, ambient conditions) was “retained”. Besides, the “7-day Stability studies: solid form” value in data set [2] (all conditions) is “Form 4 retained”. Also, the “7-day Stability studies: crystallinity” value in data set [2] (at 80° C., printed 'crystallinity significantly reduced') was “reduced at 80° C.)”.
For `COc1cc(C(=O)O[C@@H]2CCCOc3cc(cc(OC)c3OC)C(=O)NCCCN3CCCN(CC2)CC3)cc(OC)c1OC.O=S(=O)(O)O.O=S(=O)(O)O` [crystalline Form 3 Compound 1 di(hydrogen sulfate)], the TGA/DSC mass loss in data set [1] amounted to 3.1% mass loss. Also, the “TGA/DSC thermal event, onset” value in data set [1] came out at 163 °C. In addition, the “TGA/DSC thermal event, peak” value in data set [1] is 177 °C. In addition, the “7-day Stability studies: Purity compared to input” value in data set [2] is on record as “Purity similar”. For the same compound, the “solid form by XRPD after storage” value in data set [2] (7 days, 40° C./75% RH) was “Conversion to crystalline Form 2 Compound 1 di(hydrogen sulfate) trihydrate”; in data set [2] (7 days, 80° C.) it was “mixture of crystalline Form 3 Compound 1 di(hydrogen sulfate) and crystalline Form 9 Compound 1 di(hydrogen sulfate)”; in data set [2] (7 days, ambient conditions), “conversion to crystalline Form 6 Compound 1 di(hydrogen sulfate)”. The entries for the “7-day Stability studies: solid form” value in data set [2] (at 80° C.) and in data set [2] (at ambient) were “Form 9 at 80 °C” and “Form 6 at ambient;”, respectively.
